The numbers were not newly measured in patent publication US20180214453A1, “RIVAROXABAN PHARMACEUTICAL COMPOSITIONS” (INTERQUIM, S.A., priority 2015, published 2018), which cites them from elsewhere.

For series [1] the following is noted: CHMP assessment report for Xarelto, slightly soluble.
For series [2] the following is noted: according to WO05060940 A2, practically insoluble.

Consider `O=C(NC[C@H]1CN(c2ccc(N3CCOCC3=O)cc2)C(=O)O1)c1ccc(Cl)s1` [Rivaroxaban, 5-chloro-N-({(5S)-2-oxo-3-[4-(3-oxomorpholin-4-yl)phenyl]-1,3-oxazolidin-5-yl}methyl)thiophene-2-carboxamide], for which the “solubility in organic solvents” value in series [1] is 1000 to 10000 µg/mL. Besides, in series [2], the solubility in water result was “about 7 mg/L”.
